Experimental findings from patent US9409952B2, “Peptide-compound cyclization method” (Chugai Seiyaku Kabushiki Kaisha, priority 2011, dated 2016) are described below.

Data set [1] can be described thus: PAMPA (parallel artificial membrane permeability assay). The format is in vitro ADME. The settings on record: PAMPA; membrane permeation rate (Pe); 50 mM MOPSO buffer pH 6.5 with 5.0% glycocholic acid, 37° C., 18 hours; read-out: iPAMPA Pe. In outline: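 Artificial membrane was 10% (w/v) egg lecithin plus 0.5% (w/v) cholesterol in dodecane on a PVDF filter. A 10 mM DMSO stock was added at 0.5% (v/v) to donor buffer (50 mM MOPSO, pH 6.5, 5.0% glycocholic acid). After 18 h at 37 °C, LC/MS or LC/UV gave donor and acceptor levels for Pe.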
(PAMPA measures passive passage across an artificial lipid membrane.)

Data set [2] can be described thus: Metabolic stability in human hepatic microsome. As to conditions: microsomes, pH 7.4; human hepatic microsome, NADPH(+); read-out: CL NADPH(+). In kind it is in vitro ADME.

Molecules are shown by their SMILES. Starred links: 1 amine or outer side, 2 acyl side, 3 side chain; linkers in the order of their positions; H or OH if unused. Positions of bridges follow the written chain, without caps; N, C: chain ends. Non-standard residues stand in square brackets, D forms with d. Residues, ends and D or L forms follow the SMILES beside them. *: point of attachment. NMeF = CN[C@@H](Cc1ccccc1)C(=O)O; NMeβAla = CN(CCC(=O)[*:2])[*:1]; NMeL = CN[C@@H](CC(C)C)C(=O)O; NMeV = CN[C@H](C(=O)O)C(C)C; NMeA = CN[C@@H](C)C(=O)O; Piperidide = C1CCN(*)CC1; dNMeA = CN[C@H](C)C(=O)O; Sar = CNCC(=O)O; tBu = CC(C)(C)*

With `CC[C@H](C)[C@@H]1NC(=O)[C@H](CC(C)C)N(C)C(=O)[C@H](Cc2ccccc2)NC(=O)CCN(C)C(=O)C[C@@H](C(=O)N2CCCCC2)NC(=O)[C@H](CC(C)C)NC(=O)[C@H](Cc2ccccc2)NC(=O)[C@H](Cc2ccccc2)N(C)C(=O)[C@H](CC(C)C)NC(=O)[C@H]([C@@H](C)O)NC1=O` [DP-334] ([NMeβAla]F[NMeL]ITL[NMeF]FLD-Piperidide; lactam N-10), in data set [1], the Papp at 18 hours, 50 µM was determined as 20 ×10⁻⁶ cm/s. Moreover, in data set [2], the microsomal CLint at 1 uM stood at 80 µL/min/mg.
Taken in the same sequence, the figures for `CC(C)C[C@@H]1NC(=O)[C@H](Cc2ccccc2)N(C)C(=O)CNC(=O)[C@H](Cc2ccccc2)NC(=O)[C@H]([C@@H](C)O)NC(=O)[C@H](CC(C)C)N(C)C(=O)CCN(C)C(=O)C[C@@H](C(=O)N2CCCCC2)NC(=O)[C@H](COC(C)(C)C)NC(=O)[C@H](CC(C)C)N(C)C1=O` [DP-335] ([NMeβAla][NMeL]TFG[NMeF]L[NMeL]S(tBu)D-Piperidide; lactam N-10) were 22 ×10⁻⁶ cm/s and 109 µL/min/mg.
Taken in the same sequence, the figures for `CC(C)C[C@H]1C(=O)N(C)[C@@H](Cc2ccccc2)C(=O)N[C@@H]([C@@H](C)O)C(=O)N(C)[C@@H](C)C(=O)N(C)[C@@H](Cc2ccccc2)C(=O)N(C)[C@@H](C)C(=O)N[C@H](C(=O)N2CCCCC2)CC(=O)N(C)CCC(=O)N(C)[C@@H](C(C)C)C(=O)N[C@@H](C)C(=O)N1C` [DP-337] ([NMeβAla][NMeV]A[NMeL][NMeF]T[NMeA][NMeF][NMeA]D-Piperidide; lactam N-10) were 17 ×10⁻⁶ cm/s and 74 µL/min/mg.
On to `CC[C@H](C)[C@@H]1NC(=O)[C@H](Cc2ccccc2)NC(=O)[C@@H](C)N(C)C(=O)C[C@@H](C(=O)N2CCCCC2)NC(=O)[C@H](Cc2ccccc2)N(C)C(=O)[C@H](Cc2ccccc2)NC(=O)[C@H](CC(C)C)NC(=O)[C@H]([C@@H](C)O)NC(=O)[C@H](CC(C)C)NC(=O)[C@H](CC(C)C)N(C)C1=O` [DP-338] ([dNMeA]FI[NMeL]LTLF[NMeF]D-Piperidide; lactam N-10), for which the Papp at 18 hours, 50 µM in data set [1] worked out at 4.9 ×10⁻⁶ cm/s. Further, the microsomal CLint at 1 uM in data set [2] worked out at 146 µL/min/mg.
As to `CC[C@H](C)[C@@H]1NC(=O)[C@H](C(C)C)N(C)C(=O)[C@@H](C)N(C)C(=O)C[C@@H](C(=O)N2CCCCC2)NC(=O)[C@H](CC(C)C)NC(=O)[C@H](Cc2ccccc2)N(C)C(=O)[C@H](CC(C)C)N(C)C(=O)[C@H](Cc2ccccc2)NC(=O)[C@H]([C@@H](C)O)NC(=O)[C@H](CC(C)C)NC1=O` [DP-339] ([dNMeA][NMeV]ILTF[NMeL][NMeF]LD-Piperidide; lactam N-10), in data set [1], the Papp at 18 hours, 50 µM amounted to 18 ×10⁻⁶ cm/s. In addition, in data set [2], the microsomal CLint at 1 uM is 213 µL/min/mg.
Taken in the same sequence, the figures for `CC(C)C[C@H]1C(=O)N[C@@H](COC(C)(C)C)C(=O)N(C)[C@@H](Cc2ccccc2)C(=O)N(C)[C@@H](C)C(=O)N[C@@H](Cc2ccccc2)C(=O)N(C)[C@@H](C(C)C)C(=O)N[C@H](C(=O)N2CCCCC2)CC(=O)N(C)[C@H](C)C(=O)N[C@@H]([C@@H](C)O)C(=O)NCC(=O)N1C` [DP-340] ([dNMeA]TG[NMeL]S(tBu)[NMeF][NMeA]F[NMeV]D-Piperidide; lactam N-10) were 31 ×10⁻⁶ cm/s and 86 µL/min/mg.
Regarding `CC(C)C[C@H]1C(=O)N[C@@H](C)C(=O)N(C)[C@@H](Cc2ccccc2)C(=O)N(C)[C@@H](C)C(=O)N(C)[C@@H](Cc2ccccc2)C(=O)N[C@@H]([C@@H](C)O)C(=O)N(C)[C@@H](C)C(=O)N[C@H](C(=O)N2CCCCC2)CC(=O)N(C)[C@H](C)C(=O)N(C)[C@@H](C)C(=O)N1C` [DP-341] ([dNMeA][NMeA][NMeL]A[NMeF][NMeA][NMeF]T[NMeA]D-Piperidide; lactam N-10), the Papp at 18 hours, 50 µM in data set [1] came to 9.5 ×10⁻⁶ cm/s. Also, in data set [2], the microsomal CLint at 1 uM is 69 µL/min/mg.
In the case of `CC[C@H](C)[C@@H]1NC(=O)[C@H](CC(C)C)N(C)C(=O)CN(C)C(=O)[C@H]([C@@H](C)O)NC(=O)[C@H](Cc2ccccc2)N(C)C(=O)[C@H](CC(C)C)N(C)C(=O)[C@H](C)N(C)C(=O)C[C@@H](C(=O)N2CCCCC2)NC(=O)[C@H](CC(C)C)N(C)C1=O` [DP-342] ([NMeA][NMeL][NMeF]T[Sar][NMeL]I[NMeL]D-Piperidide; lactam N-9), the Papp at 18 hours, 50 µM in data set [1] turned out to be 33 ×10⁻⁶ cm/s. Further, in data set [2], the microsomal CLint at 1 uM was found to be 121 µL/min/mg.
For `CC(C)C[C@@H]1NC(=O)[C@@H](C)N(C)C(=O)C[C@@H](C(=O)N2CCCCC2)NC(=O)[C@H]([C@@H](C)O)NC(=O)[C@H](CC(C)C)N(C)C(=O)[C@H](CC(C)C)N(C)C(=O)[C@H](Cc2ccccc2)NC(=O)[C@H](CC(C)C)N(C)C(=O)[C@H](Cc2ccccc2)N(C)C1=O` [DP-343] ([dNMeA]L[NMeF][NMeL]F[NMeL][NMeL]TD-Piperidide; lactam N-9), in data set [1], the Papp at 18 hours, 50 µM turned out to be 36 ×10⁻⁶ cm/s. Also, the microsomal CLint at 1 uM in data set [2] was found to be 427 µL/min/mg.
Taken in the same sequence, the figures for `CC(C)C[C@H]1C(=O)N(C)[C@@H](C)C(=O)N(C)[C@@H](Cc2ccccc2)C(=O)N[C@@H]([C@@H](C)O)C(=O)N(C)[C@@H](C)C(=O)N(C)[C@@H](Cc2ccccc2)C(=O)N[C@H](C(=O)N(C)[C@@H](Cc2ccccc2)C(=O)N[C@@H](C)C(=O)N2CCCCC2)CC(=O)N(C)[C@@H](C)C(=O)N(C)[C@@H](C)C(=O)N(C)[C@@H](CC(C)C)C(=O)N[C@@H](C)C(=O)N1C` [DP-344] ([NMeA][NMeA][NMeL]A[NMeL][NMeA][NMeF]T[NMeA][NMeF]D[NMeF]A-Piperidide; lactam N-11) were 22 ×10⁻⁶ cm/s and 30 µL/min/mg.
With `CC(C)C[C@H]1C(=O)N(C)[C@@H](C)C(=O)N[C@@H]([C@@H](C)O)C(=O)N(C)[C@@H](C)C(=O)N(C)[C@@H](Cc2ccccc2)C(=O)N(C)CC(=O)N[C@H](C(=O)N(C)[C@@H](Cc2ccccc2)C(=O)N[C@@H](C)C(=O)N2CCCCC2)CC(=O)N(C)[C@@H](C)C(=O)N(C)[C@@H](C)C(=O)N[C@@H](C)C(=O)N[C@@H](Cc2ccccc2)C(=O)N1C` [DP-345] ([NMeA][NMeA]AF[NMeL][NMeA]T[NMeA][NMeF][Sar]D[NMeF]A-Piperidide; lactam N-11), in data set [1], the Papp at 18 hours, 50 µM was 2.8 ×10⁻⁶ cm/s. The microsomal CLint at 1 uM in data set [2] was 7 µL/min/mg.
As to `CC(C)C[C@H]1C(=O)N(C)[C@@H](C)C(=O)N(C)[C@@H](Cc2ccccc2)C(=O)N[C@@H]([C@@H](C)O)C(=O)N(C)[C@@H](C)C(=O)N(C)[C@@H](Cc2ccccc2)C(=O)N(C)[C@@H](C)C(=O)N[C@H](C(=O)N(C)[C@@H](Cc2ccccc2)C(=O)N[C@@H](C)C(=O)N2CCCCC2)CC(=O)N(C)CCC(=O)N(C)[C@@H](C)C(=O)N[C@@H](C)C(=O)N1C` [DP-346] ([NMeβAla][NMeA]A[NMeL][NMeA][NMeF]T[NMeA][NMeF][NMeA]D[NMeF]A-Piperidide; lactam N-11), in data set [1], the Papp at 18 hours, 50 µM was 4 ×10⁻⁶ cm/s. The microsomal CLint at 1 uM in data set [2] is 7 µL/min/mg.
As to `CC(C)C[C@H]1C(=O)N[C@@H](C)C(=O)N(C)[C@@H](Cc2ccccc2)C(=O)N(C)[C@@H](C)C(=O)N(C)[C@@H](Cc2ccccc2)C(=O)N[C@H](C(=O)N(C)[C@@H](Cc2ccccc2)C(=O)N[C@@H](C)C(=O)N2CCCCC2)CC(=O)N(C)[C@H](C)C(=O)N(C)[C@@H](C)C(=O)N(C)[C@@H](CC(C)C)C(=O)N[C@@H]([C@@H](C)O)C(=O)N(C)[C@@H](C)C(=O)N1C` [DP-347] ([dNMeA][NMeA][NMeL]T[NMeA][NMeL]A[NMeF][NMeA][NMeF]D[NMeF]A-Piperidide; lactam N-11), in data set [1], the Papp at 18 hours, 50 µM stood at 25 ×10⁻⁶ cm/s. In addition, the microsomal CLint at 1 uM in data set [2] amounted to 40 µL/min/mg.
